pIC50: −log10 of the molar value.
Legend:
[1] = molecular target: T1, human ether-a-go-go related gene (hERG) channel (Homo sapiens, UniProt Q12809); assay: hERG test; assay type: cell-based; settings: HEK293 cells expressing hERG channel, whole cell patch clamp, 10 minutes, concentration not given
T1 construct: expressed in transfected cells; host or cells: HEK293
From the text: For the purpose of assessing risk of an electrocardiogram QT interval prolongation, effects on delayed rectifier K+ current (IKr), which plays an important role in the ventricular repolarization process, of the compound of the present invention was studied using HEK293 cells expressing human ether-a-go-go related gene (hERG) channel.
A cell was retained at a membrane potential of −80 mV by whole cell patch clamp method using an automated patch clamp system (PatchXpress 7000A, Axon Instruments Inc.) and leakage potential at −50 mV was generated. IKr induced by depolarization pulse stimulation at +40 mV for 2 seconds and, further, repolarization pulse stimulation at −50 mV for 2 seconds was recorded. […] From the recording IKr, an absolute value of the tail peak current was measured based on the current value at the resting membrane potential using an analysis software (DataXpress ver.1, Molecular Devices Corporation). Further, the % inhibition relative to the tail peak current before application of the compound of the present invention was calculated, and compared with the vehicle-applied group (0.1% dimethyl sulfoxide solution) to assess influence of the compound of the present invention on IKr.

[2] = molecular target: T2, CYP1A2 (Homo sapiens, UniProt P05177); assay: CYP inhibition test (CYP1A2); assay type: in vitro ADME; settings: pooled human hepatic microsome 0.2 mg protein/mL, 15 minutes, 37° C.; read-out: IC50 CYP1A2 (7-ethoxyresorufin O-deethylation)
T2 construct: enzyme, pooled human hepatic microsome 0.2 mg protein/mL; from tissue
T2 sequence (P05177 1-516): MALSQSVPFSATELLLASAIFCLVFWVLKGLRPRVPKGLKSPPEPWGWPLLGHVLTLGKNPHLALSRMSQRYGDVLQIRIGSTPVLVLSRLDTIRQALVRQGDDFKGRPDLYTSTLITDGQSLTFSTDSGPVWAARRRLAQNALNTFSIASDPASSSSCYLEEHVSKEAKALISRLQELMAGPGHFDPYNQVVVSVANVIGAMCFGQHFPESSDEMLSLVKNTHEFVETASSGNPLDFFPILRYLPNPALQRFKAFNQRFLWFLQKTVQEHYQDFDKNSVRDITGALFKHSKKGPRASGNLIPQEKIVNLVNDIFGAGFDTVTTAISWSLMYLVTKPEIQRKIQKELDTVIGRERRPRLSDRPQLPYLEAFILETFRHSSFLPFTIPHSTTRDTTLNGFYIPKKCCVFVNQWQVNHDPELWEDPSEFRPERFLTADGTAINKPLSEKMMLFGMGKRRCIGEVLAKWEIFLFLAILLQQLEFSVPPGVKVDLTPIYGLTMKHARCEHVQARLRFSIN
From the text: Using commercially available pooled human hepatic microsome, and employing, as markers, 7-ethoxyresorufin O-deethylation (CYP1A2), tolbutamide methyl-hydroxylation (CYP2C9), mephenyloin 4′-hydroxylation (CYP2C19), dextromethorphan O-demethylation (CYP2D6), and terfenedine hydroxylation (CYP3A4) as typical substrate metabolism reactions of human main five CYP enzyme forms (CYP1A2, 2C9, 2C19, 2D6, 3A4), an inhibitory degree of each metabolite production amount by a compound of the present invention was assessed. […] After the centrifugation at 3000 rpm for 15 minutes, resorufin (CYP1A2 metabolite) in the supernatant was quantified by a multi-label counter and hydroxytolbutamide (CYP2C9 metabolite), 4′-hydroxymephenyloin (CYP2C19 metabolite), dextrorphan (CYP2D6 metabolite), and terfenadine alcohol metabolite (CYP3A4 metabolite) were quantified by LC/MS/MS. Addition of only DMSO being a solvent dissolving a compound to a reaction system was adopted as a control (100%), remaining activity (%) was calculated and IC50 was calculated by reverse presumption by a logistic model using a concentration and an inhibition rate.

T1 sequence (Q12809 whole entry): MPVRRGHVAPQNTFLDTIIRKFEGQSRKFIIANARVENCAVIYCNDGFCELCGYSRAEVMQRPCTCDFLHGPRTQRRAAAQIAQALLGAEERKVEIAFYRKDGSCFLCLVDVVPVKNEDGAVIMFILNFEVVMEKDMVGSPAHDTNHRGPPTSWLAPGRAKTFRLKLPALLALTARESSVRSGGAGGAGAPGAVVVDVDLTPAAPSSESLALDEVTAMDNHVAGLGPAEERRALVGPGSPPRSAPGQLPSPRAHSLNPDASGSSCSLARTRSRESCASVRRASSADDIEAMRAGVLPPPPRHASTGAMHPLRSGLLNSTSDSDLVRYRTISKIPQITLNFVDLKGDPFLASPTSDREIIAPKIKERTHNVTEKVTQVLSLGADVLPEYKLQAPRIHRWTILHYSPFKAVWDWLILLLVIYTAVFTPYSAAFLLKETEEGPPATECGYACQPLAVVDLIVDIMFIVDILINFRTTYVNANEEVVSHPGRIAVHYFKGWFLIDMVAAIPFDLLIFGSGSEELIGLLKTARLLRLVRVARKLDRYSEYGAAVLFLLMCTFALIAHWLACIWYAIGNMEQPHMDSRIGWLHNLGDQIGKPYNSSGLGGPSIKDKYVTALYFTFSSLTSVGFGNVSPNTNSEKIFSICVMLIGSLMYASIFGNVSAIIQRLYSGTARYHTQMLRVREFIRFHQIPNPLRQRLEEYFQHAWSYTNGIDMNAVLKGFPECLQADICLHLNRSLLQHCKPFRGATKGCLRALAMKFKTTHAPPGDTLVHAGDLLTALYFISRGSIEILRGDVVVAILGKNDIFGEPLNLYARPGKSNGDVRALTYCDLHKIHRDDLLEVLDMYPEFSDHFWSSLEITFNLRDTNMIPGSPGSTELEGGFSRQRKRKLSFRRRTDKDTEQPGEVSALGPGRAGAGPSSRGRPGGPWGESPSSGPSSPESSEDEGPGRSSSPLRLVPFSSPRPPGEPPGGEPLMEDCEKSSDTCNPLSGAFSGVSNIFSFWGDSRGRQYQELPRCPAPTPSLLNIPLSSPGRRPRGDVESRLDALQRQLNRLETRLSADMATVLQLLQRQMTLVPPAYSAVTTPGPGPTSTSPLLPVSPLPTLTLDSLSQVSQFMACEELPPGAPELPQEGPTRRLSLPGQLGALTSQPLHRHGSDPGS

For `C[C@@]1(c2cc(-c3cccnc3F)ccc2F)Cc2nccn2C(N)=N1` [Compound I-2], the “% inhibition of IKr tail peak current” value [1] was 12.3% and the pIC50 [2] was less than 4.70.

From patent US9018219B2, “Fused aminodihydropyrimidine derivative” (Shionogi & Co., Ltd., priority 2010, dated 2015)
